This is an account of results in patent US20250197905A1, “LEGIONAMINIC ACID GLYCOSYLTRANSFERASES FOR CHEMOENZYMATIC SYNTHESIS OF GLYCANS AND GLYCOCONJUGATES” (The Regents of the University of California, priority 2022, published 2025).

This assay deals with His6-AbGtr18. Briefly: Effects of metal ions, EDTA, and DTT on the activity of His6-AbGtr18. Type of assay: biochemical, A. baumannii K8. Particulars: donor CMP-Leg5,7Ac2; for Effect on the activity of AbGtr18: 10 mM additive, 40° C., 30 minutes, pH 6.0. How it is done:
Effects of metal ions, EDTA, and a reducing reagent DTT on the activity of His6-AbGtr18. Enzymatic assays were carried out in duplicate at 40° C. for 30 minutes in a total volume of 10 μL in citric acid-sodium citrate buffer ([…], pH 6.0) containing 1 mM CMP-Leg5,7Ac2, 1 mM GalNAcα2AA, His6-AbGtr18 (0.64 μM), and 10 mM of CaCl2), CuSO4, MgCl2, MnCl2, NiSO4, ZnCl2, ethylenediaminetetraacetic acid (EDTA), or dithiothreitol (DTT). Reactions without metal ions, EDTA, or DTT were used as controls. The reactions were quenched by adding 40 μL methanol. Samples were centrifuged, and then analyzed by UHPLC as described above for pH profile studies.

Each structure is given as a SMILES string.

Turning to `O=C(O)CN(CCN(CC(=O)O)CC(=O)O)CC(=O)O` [EDTA, ethylenediaminetetraacetic acid], the “Effect on the activity of AbGtr18” value is given as “no effect”.
Regarding `[Cl-].[Cl-].[Mg+2]` [Mg^2+, MgCl2], the “Effect on the activity of AbGtr18” value was “no significant effect”. In addition, the “Effect of increasing Mg^2+ concentration on the activity of His6-AbGtr18” value (up to 50 mM) was “decrease the activity”.
`[Cl][Mn][Cl]` [Mn^2+, MnCl2]: the “Effect on the activity of AbGtr18” value is recorded as “almost abolished its activity completely”.
On the same count and under the same terms, for `[Cl-].[Cl-].[Zn+2]` [Zn^2+, ZnCl2] the value was “almost abolished its activity completely”.
